Assays:
clinical = conditions: human, plasma, topical, 3 mg
human skin tissue = experiment: Penetration rate of AI compound in AI-helper composition through human skin in vitro, modified Franz cells; format: in vitro ADME
Procedure: Penetration rate of AI compound in the AI-helper composition through human skin were measured in vitro by modified Franz cells. A Franz cell had two chambers: the top sample chamber and the bottom receiving chamber. The human skin tissue (450-500 μm thick) that separated the top and the receiving chambers was isolated from the anterior or posterior thigh areas.

[1] = Solubility of AI compound in AI-helper composition (AI compound added until saturated); format: physicochemical; conditions: water
Procedure: Solubility was tested by adding small amounts of AI compound to a set volume of an AI-helper composition at a certain temperature until the AI-helper composition was saturated with the AI compound, and measuring the amount of the AI compound added to calculate the solubility of the AI compound in the AI-helper composition at the temperature.

## COc1ccc2[nH]cc(CCNC(C)=O)c2c1 [Melatonin]
clinical
  concentration at 0 hr: 0 ng/mL
  concentration at 1 h: 1.4 ng/mL
  concentration at 1 hr: 1.6 ng/mL
  concentration at 2 h: 1.5 ng/mL
  concentration at 2 hr: 1.7 ng/mL
  concentration at 4 h: 1.5 ng/mL
  concentration at 4 hr: 1.8 ng/mL
  concentration at 8 h: 1.4 ng/mL
  concentration at 8 hr: 1.7 ng/mL
Human skin tissue; 1% melatonin (a suspension) without helper esters, 20° C.
  Skin penetration rate of melatonin: 1.153 ± 0.111 μg/cm^2/h
Human skin tissue; melatonin 1% w/v, Tryptophan isopropyl ester•HA 6% w/v, HA = 1/2H2SO4, water, 20° C.
  Skin penetration rate of melatonin: 15.928 ± 1.476 μg/cm^2/h
Human skin tissue; melatonin 1% w/v, Tryptophan isopropyl ester•HA 6% w/v, HA = 2/3H3PO4, water, 20° C.
  Skin penetration rate of melatonin: 15.691 ± 1.571 μg/cm^2/h
Human skin tissue; melatonin 1% w/v, Tryptophan isopropyl ester•HA 6% w/v, HA = Benzoic acid, water, 20° C.
  Skin penetration rate of melatonin: 14.665 ± 1.589 μg/cm^2/h
Human skin tissue; melatonin 1% w/v, Tryptophan isopropyl ester•HA 6% w/v, HA = Butyric acid, water, 20° C.
  Skin penetration rate of melatonin: 15.378 ± 1.598 μg/cm^2/h
Human skin tissue; melatonin 1% w/v, Tryptophan isopropyl ester•HA 6% w/v, HA = Citric acid, water, 20° C.
  Skin penetration rate of melatonin: 15.371 ± 1.287 μg/cm^2/h
Human skin tissue; melatonin 1% w/v, Tryptophan isopropyl ester•HA 6% w/v, HA = H2SO4, water, 20° C.
  Skin penetration rate of melatonin: 16.780 ± 1.891 μg/cm^2/h
Human skin tissue; melatonin 1% w/v, Tryptophan isopropyl ester•HA 6% w/v, HA = HBr, water, 20° C.
  Skin penetration rate of melatonin: 15.971 ± 1.785 μg/cm^2/h
Human skin tissue; melatonin 1% w/v, Tryptophan isopropyl ester•HA 6% w/v, HA = HCl, water, 20° C.
  Skin penetration rate of melatonin: 16.678 ± 1.567 μg/cm^2/h
Human skin tissue; melatonin 1% w/v, Tryptophan isopropyl ester•HA 6% w/v, HA = HF, water, 20° C.
  Skin penetration rate of melatonin: 16.165 ± 1.167 μg/cm^2/h
Human skin tissue; melatonin 1% w/v, Tryptophan isopropyl ester•HA 6% w/v, HA = HI, water, 20° C.
  Skin penetration rate of melatonin: 14.467 ± 1.183 μg/cm^2/h
Human skin tissue; melatonin 1% w/v, Tryptophan isopropyl ester•HA 6% w/v, HA = Lactic acid, water, 20° C.
  Skin penetration rate of melatonin: 15.897 ± 1.109 μg/cm^2/h
Human skin tissue; melatonin 1% w/v, Tyrosine isopropyl ester•HA 6% w/v, HA = 1/2H2SO4, water, 20° C.
  Skin penetration rate of melatonin: 15.978 ± 2.136 μg/cm^2/h
Human skin tissue; melatonin 1% w/v, Tyrosine isopropyl ester•HA 6% w/v, HA = 1/3H3PO4, water, 20° C.
  Skin penetration rate of melatonin: 15.848 ± 1.782 μg/cm^2/h
Human skin tissue; melatonin 1% w/v, Tyrosine isopropyl ester•HA 6% w/v, HA = 2/3H3PO4, water, 20° C.
  Skin penetration rate of melatonin: 16.156 ± 3.124 μg/cm^2/h
Human skin tissue; melatonin 1% w/v, Tyrosine isopropyl ester•HA 6% w/v, HA = Acetic acid, water, 20° C.
  Skin penetration rate of melatonin: 15.983 ± 3.471 μg/cm^2/h
Human skin tissue; melatonin 1% w/v, Tyrosine isopropyl ester•HA 6% w/v, HA = Benzoic acid, water, 20° C.
  Skin penetration rate of melatonin: 17.002 ± 3.257 μg/cm^2/h
Human skin tissue; melatonin 1% w/v, Tyrosine isopropyl ester•HA 6% w/v, HA = Butyric acid, water, 20° C.
  Skin penetration rate of melatonin: 16.125 ± 1.972 μg/cm^2/h
Human skin tissue; melatonin 1% w/v, Tyrosine isopropyl ester•HA 6% w/v, HA = Citric acid, water, 20° C.
  Skin penetration rate of melatonin: 16.246 ± 2.319 μg/cm^2/h
Human skin tissue; melatonin 1% w/v, Tyrosine isopropyl ester•HA 6% w/v, HA = H2SO4, water, 20° C.
  Skin penetration rate of melatonin: 16.632 ± 1.357 μg/cm^2/h
Human skin tissue; melatonin 1% w/v, Tyrosine isopropyl ester•HA 6% w/v, HA = HBr, water, 20° C.
  Skin penetration rate of melatonin: 16.578 ± 2.117 μg/cm^2/h
Human skin tissue; melatonin 1% w/v, Tyrosine isopropyl ester•HA 6% w/v, HA = HF, water, 20° C.
  Skin penetration rate of melatonin: 15.765 ± 1.946 μg/cm^2/h
Human skin tissue; melatonin 1% w/v, Tyrosine isopropyl ester•HA 6% w/v, HA = HI, water, 20° C.
  Skin penetration rate of melatonin: 15.863 ± 1.970 μg/cm^2/h
Human skin tissue; melatonin 1% w/v, Tyrosine isopropyl ester•HA 6% w/v, HA = Lactic acid, water, 20° C.
  Skin penetration rate of melatonin: 16.029 ± 2.467 μg/cm^2/h
Human skin tissue; no helper ester (None), melatonin 1 % w/v (suspension) in water, 20 °C
  Skin penetration rate of melatonin: 1.153 ± 0.111 μg/cm^2/h
Human skin tissue; no isoleucine ester (None), AI compound 0.5 % w/v (a suspension) in water, 20 °C
  Skin penetration rate of AI compound: 1.147 ± 0.123 μg/cm^2/h
Human skin tissue; no leucine ester (None), AI compound 0.5 % w/v (a suspension) in water, 20 °C
  Skin penetration rate of AI compound: 1.147 ± 0.123 μg/cm^2/h
Human skin tissue; no proline ester (None), melatonin 0.5 % w/v (suspension) in water, 20 °C
  Skin penetration rate of melatonin: 1.147 ± 0.123 μg/cm^2/h
Human skin tissue; no tryptophan ester (None), AI compound 1 % w/v (suspension) in water, 20 °C
  Skin penetration rate of AI compound: 1.153 ± 0.111 μg/cm^2/h
Human skin tissue; no tyrosine ester (None), melatonin 1 % w/v (suspension) in water, 20 °C
  Skin penetration rate of melatonin: 1.153 ± 0.111 μg/cm^2/h
Human skin tissue; with D-tryptophan ethyl ester hydrochloride 6 % w/v in water, AI compound 1 % w/v, 20 °C
  Skin penetration rate of AI compound: 16.011 ± 1.511 μg/cm^2/h
Human skin tissue; with D-tryptophan isopropyl ester hydrochloride 6 % w/v in water, AI compound 1 % w/v, 20 °C
  Skin penetration rate of AI compound: 16.451 ± 1.473 μg/cm^2/h
Human skin tissue; with D-tryptophan pentyl ester hydrochloride 6 % w/v in water, AI compound 1 % w/v, 20 °C
  Skin penetration rate of AI compound: 15.003 ± 1.513 μg/cm^2/h
Human skin tissue; with L-isoleucine ethyl ester hydrochloride 6 % w/v in water, AI compound 0.5 % w/v, 20 °C
  Skin penetration rate of AI compound: 9.012 ± 0.148 μg/cm^2/h
Human skin tissue; with L-isoleucine isopropyl ester hydrochloride 6 % w/v in water, AI compound 0.5 % w/v, 20 °C
  Skin penetration rate of AI compound: 9.015 ± 0.161 μg/cm^2/h
Human skin tissue; with L-isoleucine methyl ester hydrochloride 6 % w/v in water, AI compound 0.5 % w/v, 20 °C
  Skin penetration rate of AI compound: 8.712 ± 0.168 μg/cm^2/h
Human skin tissue; with L-isoleucine pentyl ester hydrochloride 6 % w/v in water, AI compound 0.5 % w/v, 20 °C
  Skin penetration rate of AI compound: 8.219 ± 0.201 μg/cm^2/h
Human skin tissue; with L-leucine ethyl ester hydrochloride 6 % w/v in water, AI compound 0.5 % w/v, 20 °C
  Skin penetration rate of AI compound: 9.101 ± 0.153 μg/cm^2/h
Human skin tissue; with L-leucine hexyl ester hydrochloride 6 % w/v in water, AI compound 0.5 % w/v, 20 °C
  Skin penetration rate of AI compound: 8.019 ± 0.181 μg/cm^2/h
Human skin tissue; with L-leucine isopropyl ester hydrochloride 6 % w/v in water, AI compound 0.5 % w/v, 20 °C
  Skin penetration rate of AI compound: 9.371 ± 0.137 μg/cm^2/h
Human skin tissue; with L-leucine methyl ester hydrochloride 6 % w/v in water, AI compound 0.5 % w/v, 20 °C
  Skin penetration rate of AI compound: 9.058 ± 0.131 μg/cm^2/h
Human skin tissue; with L-tryptophan butyl ester hydrochloride 6 % w/v in water, AI compound 1 % w/v, 20 °C
  Skin penetration rate of AI compound: 15.676 ± 1.574 μg/cm^2/h
Human skin tissue; with L-tryptophan isopropyl ester hydrochloride 6 % w/v in water, AI compound 1 % w/v, 20 °C
  Skin penetration rate of AI compound: 16.678 ± 1.567 μg/cm^2/h
Human skin tissue; with L-tryptophan pentyl ester hydrochloride 6 % w/v in water, AI compound 1 % w/v, 20 °C
  Skin penetration rate of AI compound: 15.012 ± 1.315 μg/cm^2/h
[1]; tryptophan isopropyl ester•HA 10% w/v, HA = 1/2H2SO4, 20° C.
  Solubility of melatonin: >1.4% (w/v)
[1]; tryptophan isopropyl ester•HA 10% w/v, HA = 1/3H3PO4, 20° C.
  Solubility of melatonin: >1.2% (w/v)
[1]; tryptophan isopropyl ester•HA 10% w/v, HA = 2/3H3PO4, 20° C.
  Solubility of melatonin: >1.3% (w/v)
[1]; tryptophan isopropyl ester•HA 10% w/v, HA = Citric acid, 20° C.
  Solubility of melatonin: >1.2% (w/v)
[1]; tryptophan isopropyl ester•HA 10% w/v, HA = H2SO4, 20° C.
  Solubility of melatonin: >1.4% (w/v)
[1]; tryptophan isopropyl ester•HA 10% w/v, HA = HBr, 20° C.
  Solubility of melatonin: >1.4% (w/v)
[1]; tryptophan isopropyl ester•HA 10% w/v, HA = HCl, 20° C.
  Solubility of melatonin: >1.5% (w/v)
[1]; tryptophan isopropyl ester•HA 10% w/v, HA = HF, 20° C.
  Solubility of melatonin: >1.5% (w/v)
[1]; tryptophan isopropyl ester•HA 10% w/v, HA = HI, 20° C.
  Solubility of melatonin: >1.3% (w/v)
[1]; tryptophan isopropyl ester•HA 10% w/v, HA = acetic acid, 20° C.
  Solubility of melatonin: >1.4% (w/v)
[1]; tryptophan isopropyl ester•HA 10% w/v, HA = benzoic acid, 20° C.
  Solubility of melatonin: >1.3% (w/v)
[1]; tryptophan isopropyl ester•HA 10% w/v, HA = butyric acid, 20° C.
  Solubility of melatonin: >1.3% (w/v)
[1]; tryptophan isopropyl ester•HA 10% w/v, HA = lactic acid, 20° C.
  Solubility of melatonin: >1.4% (w/v)
[1]; tyrosine isopropyl ester•HA 10% w/v, HA = 1/2H2SO4, 20° C.
  Solubility of melatonin: >1% (w/v)
[1]; tyrosine isopropyl ester•HA 10% w/v, HA = 1/3H3PO4, 20° C.
  Solubility of melatonin: >1.0% (w/v)
[1]; tyrosine isopropyl ester•HA 10% w/v, HA = 2/3H3PO4, 20° C.
  Solubility of melatonin: >1.1% (w/v)
[1]; tyrosine isopropyl ester•HA 10% w/v, HA = H2SO4, 20° C.
  Solubility of melatonin: >1.2% (w/v)
[1]; tyrosine isopropyl ester•HA 10% w/v, HA = HBr, 20° C.
  Solubility of melatonin: >1.2% (w/v)
[1]; tyrosine isopropyl ester•HA 10% w/v, HA = HCl, 20° C.
  Solubility of melatonin: >1.3% (w/v)
[1]; tyrosine isopropyl ester•HA 10% w/v, HA = HF, 20° C.
  Solubility of melatonin: >1.3% (w/v)
[1]; tyrosine isopropyl ester•HA 10% w/v, HA = HI, 20° C.
  Solubility of melatonin: >1% (w/v)
[1]; tyrosine isopropyl ester•HA 10% w/v, HA = acetic acid, 20° C.
  Solubility of melatonin: >1.1% (w/v)
[1]; tyrosine isopropyl ester•HA 10% w/v, HA = benzoic acid, 20° C.
  Solubility of melatonin: >1% (w/v)
[1]; tyrosine isopropyl ester•HA 10% w/v, HA = butyric acid, 20° C.
  Solubility of melatonin: >1% (w/v)
[1]; tyrosine isopropyl ester•HA 10% w/v, HA = citric acid, 20° C.
  Solubility of melatonin: >1% (w/v)
[1]; tyrosine isopropyl ester•HA 10% w/v, HA = lactic acid, 20° C.
  Solubility of melatonin: >1.1% (w/v)
